According to patent US10717731B2, “Nitrogen-containing aromatic heterocyclic compound” (MITSUBISHI TANABE PHARMA CORPORATION, priority 2015, dated 2020):

The compounds below were run against T1, human CYP11B2 (Homo sapiens, UniProt P19099) (assay: Inhibitory effect on hCYP11B2: aldosterone production in mitochondrial fraction of V79 cells stably expressing human CYP11B2, HTRF). Settings: 0.5 μmol/L deoxycorticosterone, 150 μmol/L NADPH, 1.5-2 hours at room temperature.
T1 construct: expressed in transfected cells; mitochondrial fraction
T1 sequence (P19099 25-503): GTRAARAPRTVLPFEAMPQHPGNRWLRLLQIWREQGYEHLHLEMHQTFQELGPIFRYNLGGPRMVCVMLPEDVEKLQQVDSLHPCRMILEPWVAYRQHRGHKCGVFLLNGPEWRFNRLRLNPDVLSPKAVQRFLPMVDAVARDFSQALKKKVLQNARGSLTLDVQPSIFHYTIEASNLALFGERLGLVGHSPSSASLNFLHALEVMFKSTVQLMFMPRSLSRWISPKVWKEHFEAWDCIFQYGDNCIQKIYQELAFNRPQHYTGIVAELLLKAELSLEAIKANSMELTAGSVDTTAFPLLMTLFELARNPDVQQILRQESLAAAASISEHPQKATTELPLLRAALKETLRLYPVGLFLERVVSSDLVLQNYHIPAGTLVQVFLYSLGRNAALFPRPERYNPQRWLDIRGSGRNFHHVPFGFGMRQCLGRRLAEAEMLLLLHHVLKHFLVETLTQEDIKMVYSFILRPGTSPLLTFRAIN
Format: biochemical
Protocol: Experimental Example 1 (Inhibitory Effect on hCYP11B2)
The pcDNA3.1-human CYP11B2 plasmid was transfected into a Chinese hamster lung fibroblast V79 cell line to produce a cell line stably expressing human CYP11B2 gene.
The cells were cultured and grown in the Dulbecco's modified Eagle's/Ham's medium supplemented with 10% fetal bovine serum and 1% G418 disulfate solution under the environment of 37° C., 95% air, and 5% CO2, and the grown cells were harvested.
Then, the cells were fractionated to obtain mitochondria by reference to a method described in Chabre et al. JCE & M 85 (11) 4060-68, 2000. In particular, the cells suspended in a 5 mmol/L Tris-HCl buffer (pH 7.4) containing 250 mmol/L sucrose were homogenized in a Teflon (Registered Trademark) Potter Elvehjem homogenizer, and then the suspension was centrifuged (800×g, 15 min.). The supernatant was separated and again centrifuged (10000×g, 15 min.) to obtain a pellet (mitochondrial fraction).
The mitochondrial fraction diluted with a buffer containing 10 mmol/L KH2PO4, 10 mmol/L Tris, 20 mmol/L KCl, 25 mmol/L sucrose, 5 mmol/L MgCl2, and 0.05% bovine serum albumin was dispensed to a 96-well plate. 0.5 μmol/L Deoxycorticosterone, 150 μmol/L NADPH and a compound of each concentration were added to each well, and incubated for 1.5-2 hours at room temperature to produce aldosterone. An amount of the produced aldosterone in the incubated solution was determined by using HTRF (Homogeneous Time Resolved Fluorescence) method.
IC50 (nmol/L) was calculated by analyzing the aldosterone production inhibition rate (%) of each concentration of compounds by non-linear regression to a logistic curve.

Compound	IC50
O=C(CN1CCN(c2cc(-c3ccc(Cl)cc3)cnn2)CC1)NC1CCNCC1O (single isomer, unassigned) [Example 90a]	33 nM
O=C(CN1CCN(c2cc(-c3ccc(Cl)cc3)cnn2)CC1)NC1CCNCC1O (single isomer, unassigned) [Example 90b]	76 nM
CN1CCC(NC(=O)CN2CCN(c3cc(-c4ccc(Cl)cc4)cnn3)CC2)CC1=O (single isomer, unassigned) [Example 91a]	30 nM
CN1CCC(NC(=O)CN2CCN(c3cc(-c4ccc(Cl)cc4)cnn3)CC2)CC1=O (single isomer, unassigned) [Example 91b]	12 nM
CC(C)(C)OC(=O)N1C2COCC1CC(NC(=O)CN1CCN(c3cncc(-c4ccc(F)cc4)c3)CC1)C2 (stereo not drawn) [Example 5]	14 nM
CN(C)[C@H]1CC[C@@H](NC(=O)CN2CCN(c3cncc(-c4ccc(F)cc4)c3)CC2)CC1 [Example 6]	13 nM
CC(C)NC(=O)CN1CCN(c2cncc(-c3ccc(C#N)nc3)c2)CC1 [Example 11]	18 nM
CC(C)NC(=O)CN1CCN(c2cncc(-c3ccc4cn[nH]c4c3)c2)CC1 [Example 14]	30 nM
CC(C)NC(=O)CN1CCN(c2cncc(-c3ccc4cnn(C)c4c3)c2)CC1 [Example 15]	18 nM
CC1CCC(c2cncc(N3CCN(CC(=O)NC(C)C)CC3)c2)CC1 (stereo not drawn) [Example 17]	17 nM
C[C@H](O)CNC(=O)CN1CCN(c2cncc(-c3ccc4cnn(C)c4c3)n2)CC1 [Example 18]	14 nM
Cc1ccc(-c2cncc(N3CCN(CC(=O)NCC4(O)CCN(C)CC4)CC3)n2)cc1 [Example 21]	28 nM
Cn1ncc2ccc(-c3cncc(N4CCN(CC(=O)N[C@H]5CC[C@@H](CO)CC5)CC4)n3)cc21 [Example 22]	19 nM
CO[C@H]1CC[C@@H](NC(=O)CN2CCN(c3cncc(-c4ccc5cnn(C)c5c4)n3)CC2)CC1 [Example 26]	14 nM
CN1CCC(NC(=O)CN2CCN(c3cncc(-c4ccc5cnn(C)c5c4)n3)CC2)CC1 [Example 27]	42 nM
Cn1ncc2cc(-c3cncc(N4CCN(CC(=O)N[C@H]5CC[C@@H](N(C)C)CC5)CC4)n3)ccc21 [Example 29]	37 nM
Cn1ncc2cc(-c3cncc(N4CCN(CC(=O)N[C@H]5CC[C@@H](C(C)(C)O)CC5)CC4)n3)ccc21 [Example 30]	13 nM
CC(C)[C@@H](CO)NC(=O)CN1CCN(c2cncc(-c3ccc(C(F)(F)F)cc3)n2)C[C@H]1C [Example 42]	40 nM

Compound	IC50
C[C@@H]1CN(c2cncc(-c3ccc(C(F)(F)F)cc3)n2)CCN1CC(=O)N[C@H]1CC[C@](C)(O)CC1 [Example 43]	41 nM
C[C@@H]1CN(c2cncc(-c3ccc(C(F)(F)F)cc3)n2)CCN1CC(=O)N[C@@H](C)C(C)(C)O [Example 44]	56 nM
C[C@@H]1CN(c2cncc(-c3ccc(C(F)(F)F)cc3)n2)CCN1CC(=O)NCC(C)(C)O [Example 45]	20 nM
C[C@@H]1CN(c2cncc(-c3ccc(C(F)(F)F)cc3)n2)CCN1CC(=O)N[C@H]1CCC[C@H]1O [Example 46]	26 nM
Cc1ccccc1-c1cncc(N2CCN(CC(=O)NC3CCN(CCS(C)(=O)=O)CC3)CC2)n1 [Example 47]	22 nM
Cc1ccccc1-c1cncc(N2CCN(CC(=O)N[C@H]3CN4CCC3CC4)CC2)n1 [Example 48]	14 nM
CC(C)NC(=O)CN1CCN(c2cncc(-c3ccc4c(cnn4C)c3)n2)CC1 [Example 50]	48 nM
CC(C)NC(=O)CN1CCN(c2cncc(-c3ccc(C(F)(F)F)cc3)n2)C[C@H]1C [Example 51]	17 nM
CC1CCC(c2cncc(N3CCN(CC(=O)NC(C)C)CC3)n2)CC1 (stereo not drawn) [Example 52]	18 nM
CC(C)NC(=O)CN1CCN(c2cncc(-c3ccc(C#N)nc3)n2)CC1 [Example 53]	25 nM
Cn1ncc2ccc(-c3cncc(N4CCN(CC(=O)NN5CCCC5)CC4)n3)cc21 [Example 54]	16 nM
CC(C)NC(=O)CN1CCN(c2cncc(-c3ccc4cn[nH]c4c3)n2)CC1 [Example 56]	38 nM
Cc1ccccc1-c1cnnc(N2CCN(CC(=O)N[C@H]3CC[C@H](N4CCOCC4)CC3)CC2)c1 [Example 57]	16 nM
Cc1ccc(-c2cnnc(N3CCN(CC(=O)N[C@@H]4CCOC[C@@H]4O)CC3)c2)cc1 [Example 58]	20 nM
CNC(=O)CN1CCC(NC(=O)CN2CCN(c3cc(-c4ccc(C)cc4)cnn3)CC2)CC1 [Example 59]	23 nM
Cc1ccc(-c2cnnc(N3CCN(CC(=O)NC[C@H]4CN(C)CCO4)CC3)c2)cc1 [Example 60]	18 nM
CN(C)[C@H]1CC[C@@H](NC(=O)CN2CCN(c3cc(-c4c(F)cccc4F)cnn3)CC2)CC1 [Example 67]	41 nM

Compounds with a lower IC50, results first:

IC50	Compound
11 nM	CC(C)NC(=O)CN1CCN(c2cncc(-c3ccc4c(c3)CCO4)c2)CC1 [Example 13]
11 nM	CS(=O)(=O)N1CCC(CNC(=O)CN2CCN(c3cc(-c4ccc(F)cc4)cnn3)CC2)CC1 [Example 62]
10 nM	CO[C@H]1CC[C@@H](NC(=O)CN2CCN(c3cncc(-c4ccc5c(cnn5C)c4)n3)CC2)CC1 [Example 28]
9.6 nM	O=C(CN1CCN(c2cncc(-c3ccc(F)cc3)n2)CC1)N[C@H]1CC[C@@H](N2CCOCC2)CC1 [Example 32]
9.6 nM	O=C(CN1CCN(c2cncc(-c3ccc(Cl)cc3)n2)CC1)NC1CCS(=O)(=O)CC1 [Example 41]
9.6 nM	CNC(=O)COC1CCC(NC(=O)CN2CCN(c3cc(-c4ccc(F)cc4)cnn3)CC2)CC1 (stereo not drawn) [Example 66]
9.2 nM	Cc1ccc(-c2cncc(N3CCN(CC(=O)NC4CC5COCC(C4)C5O)CC3)c2)cc1 (stereo not drawn) [Example 10]
9.1 nM	COC1CCN(NC(=O)CN2CCN(c3cc(-c4ccc(Cl)cc4)cnn3)CC2)CC1 [Example 65]
8.8 nM	C[C@H](O)CNC(=O)CN1CCN(c2cc(-c3ccc(F)cc3)cnn2)CC1 [Example 63]
8.7 nM	CN(C)[C@H]1CC[C@@H](NC(=O)CN2CCN(c3cncc(-c4ccc(Cl)cc4)n3)CC2)CC1 [Example 38]
8.6 nM	CS(=O)(=O)CCN1CCC(NC(=O)CN2CCN(c3cncc(-c4ccc(F)cc4)n3)CC2)CC1 [Example 35]
8.4 nM	CC(=O)N[C@H]1CC[C@@H](NC(=O)CN2CCN(c3cncc(-c4ccc(F)cc4)n3)CC2)CC1 [Example 37]
8.3 nM	CNC(=O)COC1CCC(NC(=O)CN2CCN(c3cc(-c4ccc(Cl)cc4)cnn3)CC2)CC1 (stereo not drawn) [Example 68]
7.4 nM	O=C(CN1CCN(c2cc(-c3ccc(F)cc3)cnn2)CC1)N[C@@H]1CCNC[C@H]1F (single isomer, unassigned) [Example 89a]
7 nM	O=C(CN1CCN(c2cncc(-c3ccc(F)cc3)n2)CC1)NC1CCN(C2CCOCC2)CC1 [Example 34]
6.9 nM	CC1CC=C(c2cncc(N3CCN(CC(=O)NC(C)C)CC3)c2)CC1 (stereo not drawn) [Example 16]
6.6 nM	O=C(CN1CCN(c2cncc(-c3ccc(F)cc3)c2)CC1)NC1CCn2ccnc2C1 (stereo not drawn) [Example 1]
6.6 nM	CC(C)(C)OC(=O)N1CCN(CCNC(=O)CN2CCN(c3cc(-c4ccc(F)cc4)cnn3)CC2)CC1 [Example 64]
5.1 nM	CN(C)[C@H]1CC[C@H](NC(=O)CN2CCN(c3cncc(-c4ccc(F)cc4)n3)CC2)CC1 [Example 31]
4.9 nM	Cc1ccccc1-c1cncc(N2CCN(CC(=O)N[C@H](CO)C(C)C)CC2)c1 [Example 8]
4.8 nM	Cc1ccccc1-c1cncc(N2CCN(CC(=O)Nc3cnn(C)c3)CC2)c1 [Example 7]
4.8 nM	O=C(CN1CCN(c2cncc(-c3ccc(F)cc3)n2)CC1)NC1CCN(c2ncccn2)CC1 [Example 36]
4.5 nM	CO[C@H]1CC[C@@H](NC(=O)CN2CCN(c3cncc(-c4ccc(C)cc4)n3)CC2)CC1 [Example 20]
4.3 nM	CC(C)[C@@H](CO)NC(=O)CN1CCN(c2cncc(-c3ccc(Cl)cc3)n2)CC1 [Example 39]
4 nM	O=C(CN1CCN(c2cncc(-c3ccc(Cl)cc3)n2)CC1)NN1CCCC1 [Example 40]
3.9 nM	O=C1CN([C@H]2CC[C@@H](NC(=O)CN3CCN(c4cncc(-c5ccc(F)cc5)n4)CC3)CC2)CCN1 [Example 33]
2.5 nM	Cc1ccccc1-c1cnnc(N2CCN(CC(=O)Nc3cccnc3)CC2)c1 [Example 61]
2.2 nM	CC(C)NC(=O)CN1CCN(c2cncc(-c3ccc4c(c3)CCO4)n2)CC1 [Example 55]
